Assays:
[1] = test system: non-specific interstitial pneumonitis (NSIP); experiment: Inventor's own treatment course for non-specific interstitial pneumonitis, tracked by CRP level and symptoms; format: in vivo, human; settings: tapered-down doses of prednisone from 30-40 mg/day
Procedure: NSIP is a sub-type of Idiopathic Pulmonary Fibrosis (IPF), comprising a group of interstitial pneumonias. […] Following the NSIP diagnosis, my tapered prednisone treatments were supplemented with 100 mg/day azathioprine and, subsequently, with 1800 mg/day N-Acetyl Cysteine (NAC).

[2] = test system: idiopathic pulmonary fibrosis; settings: as compared with placebo; Martinez F. J. et al., N Engl J Med 2014; cited from earlier work

| Structure (SMILES) | symptoms (dry cough, dyspnea, fever) [1] | systemic inflammation as measured by CRP level ([1]; eventually approaching and exceeding levels in the teens of mg/l) | preservation of FVC [i.e., lung capacity] [2] |
| --- | --- | --- | --- |
| C[C@]12C=CC(=O)C=C1CC[C@@H]1[C@@H]2C(=O)C[C@@]2(C)[C@H]1CC[C@]2(O)C(=O)CO [prednisone] | continued symptoms to worsen | continued to worsen | – |
| CC(=O)N[C@@H](CS)C(=O)O [acetylcysteine, N-Acetyl Cysteine] | – | – | no significant benefit |

Reference: patent US10052336B2, “Pulmonary interstitial pneumonia treatment” (priority 2012, dated 2018)
